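Dose response: 5 concentrations. Exposure: 48 h. Format: 96-well plates. Endpoint: linear interpolation; highest concentration if not reached. GI50: concentration for 50% inhibition of growth.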 Calls of active or inactive are those of the source. Rule as the data show it: active = GI50 up to about 1.1 µM and inactive = higher.
Assays:
Experiment in all cases: NCI anticancer screen, dose series, 48 h
[1] = tested on: A498
[2] = tested on: HCT-116
[3] = tested on: HCT-15
[4] = tested on: HOP-62
[5] = tested on: Hs-578T
[6] = tested on: IGROV-1
[7] = tested on: MDA-MB-435
[8] = tested on: MOLT-4
[9] = tested on: Malme-3M
[10] = tested on: NCI/ADR-RES
[11] = tested on: OVCAR-3
[12] = tested on: OVCAR-5
[13] = tested on: RXF 393
[14] = tested on: SF-295
[15] = tested on: SK-MEL-2
[16] = tested on: SW-620
[17] = tested on: T47D
[18] = tested on: HL-60
[19] = tested on: RPMI-8226

SMILES | GI50 [1] | GI50 [2] | GI50 [3] | GI50 [4] | GI50 [5] | GI50 [6] | GI50 [7] | GI50 [8] | GI50 [9] | GI50 [10] | GI50 [11] | GI50 [12] | GI50 [13] | GI50 [14] | GI50 [15] | GI50 [16] | GI50 [17] | GI50 [18] | GI50 [19]
CCCCCCCCCC(=O)OCC1(CO)C/C(=C/CC(C(C)C)C(C)C)C(=O)O1 (stereo not drawn) | 53.3 µM (inactive) | 33.5 µM (inactive) | 84.5 µM | 30 µM (inactive) | 27 µM (inactive) | 37.7 µM (inactive) | 31.6 µM (inactive) | 14.5 µM (inactive) | 23 µM (inactive) | > 100 µM (inactive) | > 100 µM (inactive) | 64.9 µM (inactive) | > 100 µM (inactive) | 42.4 µM (inactive) | > 100 µM (inactive) | 26.9 µM (inactive) | 58.3 µM (inactive) |  | 
N#CCc1nc(-c2cc3ccccc3oc2=O)cs1 |  | 80.5 µM (inactive) | 35.8 µM | 62.7 µM (inactive) | 56.9 µM (inactive) | 40.6 µM (inactive) | 44.6 µM (inactive) | 16.6 µM (inactive) | 65.8 µM (inactive) | 79.6 µM (inactive) |  | > 100 µM (inactive) | > 100 µM (inactive) | 72.6 µM (inactive) | 25.4 µM (inactive) | > 100 µM (inactive) | 40.1 µM (inactive) | 17.5 µM (inactive) | 33.7 µM (inactive)
Brc1ccc(/N=N/c2ccc3ccccc3n2)cc1 |  | 12.9 µM (inactive) | 35.3 µM |  | 18 µM (inactive) | 21.4 µM (inactive) | 64.3 µM (inactive) |  | 12.8 µM (inactive) | 33.3 µM (inactive) |  | 64.9 µM (inactive) | 28.2 µM (inactive) | 24.8 µM (inactive) | > 100 µM (inactive) | 82.6 µM (inactive) | 22.2 µM (inactive) | 18.7 µM (inactive) | 18.1 µM (inactive)
COc1cc2c(cc1OC)C(N)CC2=O (stereo not drawn) | > 100 µM (inactive) | > 100 µM (inactive) | > 100 µM | > 100 µM (inactive) | > 100 µM (inactive) | > 100 µM (inactive) | > 100 µM (inactive) | > 100 µM (inactive) |  | > 100 µM (inactive) | > 100 µM (inactive) | > 100 µM (inactive) | > 100 µM (inactive) | > 100 µM (inactive) | > 100 µM (inactive) | > 100 µM (inactive) | > 100 µM (inactive) |  | > 100 µM (inactive)
CC1=C(C(=O)OC(C)C)C(c2cccc([N+](=O)[O-])c2)C(C(=O)OC(CO[N+](=O)[O-])CO[N+](=O)[O-])=C(C)N1 (stereo not drawn) |  | 2.66 µM (inactive) | 2.86 µM | 3.85 µM (inactive) | 3.51 µM (inactive) | 4.75 µM (inactive) | 3.15 µM (inactive) | 1.85 µM (inactive) | 5.15 µM (inactive) | 2.45 µM (inactive) | 3.45 µM (inactive) | 6.71 µM (inactive) | 7.52 µM (inactive) | 0.501 µM (active) | 2.39 µM (inactive) | 4.14 µM (inactive) | 3.99 µM (inactive) | 2 µM (inactive) | 1.05 µM (active)
COC(=O)[C@@H]1C[C@]2(CC=C(C)C)c3ccccc3N(S(=O)(=O)c3ccccc3)[C@@H]2N1C(=O)OC |  | 20 µM (inactive) | 10.4 µM | 26.8 µM (inactive) | 10.6 µM (inactive) |  | 10.4 µM (inactive) | 8.2 µM (inactive) | 32.5 µM (inactive) | 10.4 µM (inactive) | 19.4 µM (inactive) | > 100 µM (inactive) | 8.22 µM (inactive) | 24.3 µM (inactive) | 5.96 µM (inactive) | 40.6 µM (inactive) | 5.94 µM (inactive) | 9.14 µM (inactive) | 6.67 µM (inactive)
O=S1(=O)OCCOS(=O)(=O)C1(F)Br |  | > 100 µM (inactive) | > 100 µM | > 100 µM (inactive) | > 100 µM (inactive) |  | > 100 µM (inactive) | > 100 µM (inactive) | > 100 µM (inactive) | > 100 µM (inactive) | > 100 µM (inactive) | > 100 µM (inactive) | > 100 µM (inactive) | > 100 µM (inactive) | > 100 µM (inactive) | > 100 µM (inactive) | > 100 µM (inactive) | > 100 µM (inactive) | > 100 µM (inactive)

From ChEMBL document CHEMBL1201862, “PubChem BioAssay data set” (2004)
